Assay results: PMC5059489, “Mechanistic evaluation and transcriptional signature of a glutathione S-transferase omega 1 inhibitor” (Nature Communications, 2016)
Where two headings read alike, the source gives them in different places.

What was measured:
GSTO1 [1] = target: T1, GSTO1 (Homo sapiens, UniProt P78417); assay: GSTO1 substrate assay (reduction of 4-NPG)
T1 sequence (P78417 1-241): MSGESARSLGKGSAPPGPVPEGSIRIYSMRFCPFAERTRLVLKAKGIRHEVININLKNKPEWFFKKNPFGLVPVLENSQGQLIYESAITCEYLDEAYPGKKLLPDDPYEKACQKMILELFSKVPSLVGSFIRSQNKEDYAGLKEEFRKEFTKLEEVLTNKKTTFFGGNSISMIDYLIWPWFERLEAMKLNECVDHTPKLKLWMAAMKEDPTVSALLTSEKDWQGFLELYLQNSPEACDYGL
Protocol: For activity screening, we adapted a GSTO1 substrate assay that relies on the quantification of the reduction of S-(4-nitrophenacyl)glutathione (4-NPG), a GSTO1-specific substrate[17], using recombinant human GSTO1 in a high-throughput screening format.
Enzyme activity was measured by monitoring the reduction of 4-NPG to 4-nitroacetophenone by GSTO1.

GSTO1 [2] = target: T1, GSTO1; assay: In-gel fluorescence competitive CMFDA binding assay, recombinant GSTO1; settings: inhibition of CMFDA binding
Description: (§1) Primary screening of GSTO inhibitors was based on competitive inhibition of CMFDA binding to endogenous GSTO. Briefly, HCT116^p53+/+ cells (4 × 10^4 per well) were coated in a 12-well plate. […] Cells were then washed with PBS and lysed using Cell Lytic M buffer (Sigma). […] Gels were immediately scanned on a Typhoon variable mode imager (Amersham Bioscience). Quantification of fluorescent band intensity was done using Image Quant 5.2 software.

endogenous GSTO1 = target: T2, endogenous GSTO1 (Homo sapiens, UniProt P78417); assay: In-gel fluorescence competitive CMFDA binding assay, endogenous GSTO1 in HCT116; settings: 10 µM; inhibition of CMFDA binding, HCT116
T2 sequence (P78417 1-241): T1 sequence (P78417 1-241)
Description: as §1

[3] = read-out: GSTO substrate assay IC50, cluster screening tables

| SMILES | GSTO substrate assay % Inhibition at 10 µM (GSTO1 [1]) | GSTO binding assay (% Inhibition at 10 µM) Recombinant (GSTO1 [2]) | GSTO binding assay (% Inhibition at 10 µM) Endogenous (endogenous GSTO1) | IC50 (GSTO1 [1]; [3]) | IC50 (GSTO1 [1]; Substrate assay IC50, pilot screening) |
| --- | --- | --- | --- | --- | --- |
| O=C(CCl)Nc1ccc(OC(F)F)cc1 [C1-6] | 22.7% | 45.6% | 87.6% |  |  |
| CCC1(c2ccccc2)NC(=O)N(NC(=O)CCl)C1=O (stereo not shown) [C2-29] | 42.7% | 13.5% | 65.0% |  |  |
| Cc1cccc(NC(=S)NC(NC(=O)CCl)C(Cl)(Cl)Cl)c1 (stereo not shown) [C3-27] | 54.2% | 63.4% | 63.8% | 1650 nM |  |
| CCOc1ccc(NC(=O)CCl)cc1S(=O)(=O)N1CCCCC1 [C1-30] | 75% | 75.9% | 80.8% | 79 nM |  |
| Cc1cc(C)c(-c2csc(NC(=O)CCl)n2)cc1C [C2-23] | 26.4% | 76.0% |  |  |  |
| COc1cc2c(cc1OC)CN(C(=O)CCl)CC2 [C5-17] | 69.5% | 9.4% |  |  |  |
| CCN(C(=O)CCl)C1CCS(=O)(=O)C1 (stereo not shown) [C4-4] | -0.8% | 5.9% | 17.0% |  |  |
| O=C(CCl)NCc1cc([N+](=O)[O-])ccc1O [C3-3] | 93.2% | 47.9% | 52.0% |  |  |
| O=C(CCl)NC(=O)c1cccc2ccccc12 [C3-18] | 0.6% | 0.3% | 37.5% |  |  |
| CCOc1ccc(NC(=O)NC(=O)CCl)cc1OCC [C3-19] | 99.5% | 59.2% | 65.2% | 508 nM |  |
| CCN(CC)c1ccc(S(=O)(=O)N2CCOCC2)cc1NC(=O)CCl [C1-32] | 84.2% | 4.4% | 48.2% |  |  |
| O=C(CCl)NCCN1C(=O)SC(=Cc2ccccc2F)C1=O [C3-32] | 12.5% | 23.6% | 53.1% |  |  |
| Cc1nn(Cc2ccccc2)c(C)c1CNC(=O)CCl [C3-30] | 83.1% | 10.6% | 14.5% |  |  |
| O=C(CCl)NCC1(N2CCCCC2)CCCCC1 [C3-31] | 0.3% | -13.7% | 23.0% |  |  |
| Cc1cc(C)c(NC(=O)CNC(=O)CCl)c(C)c1 [C3-24] | 72.3% | 29.2% | 58.8% |  |  |
| CCN(c1ccc(NC(=O)CCl)cc1)C(C)C [C1-15] | 91.3% | 43.8% | 78.6% |  |  |
| CCOc1ccc(/C=C/C2=Cc3c(sc(NC(=O)CCl)c3C#N)C(C)(C)C2)cc1 [C2-21] | 99.5% | 78.6% | 52.3% | 350 nM |  |
| O=C(CCl)Nc1ccccc1NC(=O)CCl [4c] |  |  |  |  | 80800 nM |
| CCOc1ccc(OCCNC(=O)CCl)cc1 [C3-13] | 62.6% | 25.1% |  |  |  |
| CCOC(=O)c1c(-c2ccc(OC)c(OC)c2)csc1NC(=O)CCl [C2-12] | 3.4% | 74.9% | 59.8% |  |  |
| O=C(CCl)Nc1ccccc1N1CCOCC1 [C1-21] | -8.4% | 69.9% | 58.2% |  |  |
| COc1cc(C(=O)NNC(=O)CCl)cc(OC)c1OC [C3-22] | 10.4% | -2.4% | -12.1% |  |  |
| CN(CCOc1ccc(Cl)cc1)C(=O)CCl [C4-9] | 20.7% | 66.7% | 43.5% |  |  |
| O=C(CCl)N1CCN(S(=O)(=O)c2ccc(F)c(F)c2)CC1 [C5-14] | 91.8% | 61.2% | 60.9% | 496 nM |  |
| O=C(CCl)NCc1ccccc1CN1CCOCC1 [C3-1] | 11.1% | 6.0% | 7.3% |  |  |
| Cc1ccc(CSCCNC(=O)CCl)cc1 [C3-15] | 5.1% | 35.7% | 86.9% |  |  |
| CCOC(=O)c1sc(-c2ccccc2)cc1NC(=O)CCl [C2-11] | -1.5% | 58.2% | 19.9% |  |  |
| CC(C)c1ccc(C(NC(=O)CCl)C(C)C)cc1 (stereo not shown) [C3-6] | 56.2% | 53.7% | 51.3% | 7880 nM |  |
| CCOC(=O)c1c(-c2ccccc2)csc1NC(=S)NC(=O)CCl [C3-26] | 69.5% | 68.2% | 42.2% |  |  |
| O=C(CCl)Nc1sc2c(c1C(=O)c1ccccc1)CCCC2 [C2-20] | 91.1% | 68.3% | 39.6% |  |  |
